# Results taken from patent US11472843B2, “Malacidins and methods of use” (The Rockefeller University, priority 2017, dated 2022).
# Legend:
# S. aureus USA300 = assay: MIC assay, S. aureus USA300 (MRSA); type: cell-based, Staphylococcus aureus
# Procedure: (§1) MIC assays were performed in duplicate in 96-well microtiter plates on the basis of the protocol recommended by the Clinical and Laboratory Standards Institute (Cockerill, 2012, Clinical and Laboratory Standards Institute). All presented data are the average of at least three independent assays. Stock solutions of malacidin or daptomycin (2 mg ml^−1 in H2O) were added to the first well in a row and serially diluted (twofold per transfer) across the microtiter plate. CaCl2 was supplemented to media at a final concentration of 15 mM and fetal bovine serum (ATCC) was added to media (1:10) to test the effect of serum. Overnight cultures of bacteria were diluted 5,000-fold, and 50 μl was used as an inoculum in each well. MIC values were determined by visual inspection after 18 h incubation (30° C., static growth). For the enhanced calcium titration experiments, standard MIC assays were performed with methicillin-resistant Staphylococcus aureus (MRSA) PFGE strain type USA300 in media supplemented with CaCl2 at: 25.0, 18.8, 14.1, 7.03, 3.52, 2.50, 1.76, 0.880, 0.440, 0.250 and 0 mM. To assess the effects of monovalent and divalent cations on malacidin activity, standard MIC assays were performed with MRSA USA300 in media supplemented with 15 mM CaCl2, MgCl2, MnCl2, ZnCl2, SrCl2, NaCl and KCl. To evaluate the effects of pulmonary surfactants on activity against a community-acquired pneumonia-causing pathogen, standard MIC assays were performed with Streptococcus pneumoniae TCH8431 in media supplemented with both 15 mM CaCl1 and Survanta (beractant) at a final concentration of 5, 1, 0.5, 0.25 or 0% (volume/volume (v/v) percent).
# [1] = system: UDP-MurNAc-pentapeptide in MRSA USA300; assay: UDP-MurNAc-pentapeptide accumulation assay; type: cell-based, Staphylococcus aureus; conditions: 10 μg ml^−1, 60 min, UPLC-MS
# Procedure: The intracellular accumulation of the cell wall precursor UDP-MurNAc-pentapeptide after treatment of MRSA USA300 with malacidin was assessed as previously described (Schneider et al., […], Antimicrob Agents Ch 53:1610-18). In brief, single colonies of MRSA USA300 were grown in LB media with and without 15 mM CaCl2 to an OD600 nm of 0.6. […] of cells and medium were incubated with a final concentration of 130 μg ml^−1 chloramphenicol for 15 min at 37° C. Antibiotics to be assayed were added at 10 μg ml^−1 and incubated for 60 min at 37° C. Vancomycin, known to form a complex with lipid II, was used as a positive control. Cells were collected by centrifugation, and resuspended in 30 μl dH2O and incubated in boiling water for 15 min. The cell extract was then centrifuged at 14,000 g. Supernatant was analysed for UDP-linked cell wall precursors by a UPLC-MS system. Experiments were performed with biological replicates.
# [2] = system: Lactobacillus rhamnosus NCTC 13031; assay: MIC assay, L. rhamnosus; type: cell-based
# Procedure: as §1, with “To evaluate the effects of pulmonary surfactants on activity against a community-acquired pneumonia-causing pathogen, standard MIC assays were performed with Streptococcus pneumoniae TCH8431 in media supplemented with both 15 mM CaCl1 and Survanta (beractant) at a final concentration of 5, 1, 0.5, 0.25 or 0% (volume/volume (v/v) percent).” left out
# E. faecium VRE = assay: MIC assay, E. faecium VRE; type: cell-based, Enterococcus faecium; conditions: Vancomycin (VRE)
# Procedure: as §1
# [3] = system: Candida albicans ATCC 1884; assay: MIC assay, C. albicans; type: cell-based
# Procedure: as §1
# [4] = system: Streptococcus mutans UA159; assay: MIC assay, S. mutans; type: cell-based
# Procedure: as §1, with “To evaluate the effects of pulmonary surfactants on activity against a community-acquired pneumonia-causing pathogen, standard MIC assays were performed with Streptococcus pneumoniae TCH8431 in media supplemented with both 15 mM CaCl1 and Survanta (beractant) at a final concentration of 5, 1, 0.5, 0.25 or 0% (volume/volume (v/v) percent).” left out
# [5] = system: Salmonella enterica IR 715; assay: MIC assay, Salmonella enterica; type: cell-based
# Procedure: as §1
# MRSA USA300 = assay: Membrane leakage assay (SYTOX green); type: cell-based, Staphylococcus aureus; conditions: 20 μg ml^−1
# Procedure: The effects of malacidin on membrane integrity was assessed using SYTOX green. In brief, single colonies of MRSA USA300 were grown in LB media with and without 15 mM CaCl2 to an OD600 nm of 0.35. Nine hundred microlitres of cells were mixed with 100 μL of 17 μM SYTOX green dye (Thermo Fisher). The resulting mixture was incubated for 5 min at 22° C., and then distributed to a microtiter plate at 50 μl per well. An initial reading of fluorescence pre-antibiotic addition was measured at excitation and emission wavelengths of 488 nm and 523 nm, respectively. Fifty microlitres of antibiotics was added to respective wells at a final concentration of 20 μg ml^−1. Measurements were immediately collected for 10 min. To assess the effects of malacidin on membrane depolarization, similar assays were set up using the membrane potential probe, DiBAC4 (bis-(1,3-dibutylbarbituric acid)trimethine oxonol). Single colonies of MRSA USA300 were grown in LB media with and without 15 mM CaCl2 to an OD600 nm of 0.35. Nine hundred microlitres of cells were mixed with 100 μl of 20 μg ml DiBAC4dye (Thermo Fisher). The resulting mixture was incubated for 5 min at 22° C., and then distributed to a microtiter plate at 50 μl per well. An initial reading of fluorescence pre-antibiotic addition was measured at excitation and emission wavelengths of 492 nm and 515 nm, respectively. Fifty microlitres of antibiotics was added to respective wells at a final concentration of 20 μg ml^−1. Measurements were immediately collected for 10 min. Representative examples from three technical replicates are shown.
# Escherichia coli DH5α = assay: MIC assay, E. coli DH5α; type: cell-based
# Procedure: as §1
# [6] = system: Pseudomonas aeruginosa PAO1; assay: MIC assay, P. aeruginosa; type: cell-based
# Procedure: as §1
# S. aureus BAA-42 = assay: MIC assay, S. aureus BAA-42; type: cell-based, Staphylococcus aureus; conditions: β-lactams
# Procedure: as §1
# [7] = system: Acinetobacter baumannii ATCC 17978; assay: MIC assay, A. baumannii; type: cell-based; conditions: range of at least three independent experiments
# Procedure: as §1
# E. faecium Com15 = assay: MIC assay, E. faecium Com15; type: cell-based, Enterococcus faecium
# Procedure: as §1
# S. aureus NRS140 = assay: MIC assay, S. aureus NRS140; type: cell-based, Staphylococcus aureus; conditions: β-lactams
# Procedure: as §1
substance,measurement,setting,value
malacidin A,Dependence of antibiosis (MIC) against MRSA on calcium,"S. aureus USA300; MRSA USA300, CaCl2 0 to 25.0 mM",calcium-dependent
same,MIC,"S. aureus USA300; S. aureus USA300 + 10% serum, 15 mM CaCl2",0.2-0.8 μg m1^−1
same,MIC,"S. aureus USA300; S. aureus USA300, acquired resistance β-lactams, 15 mM CaCl2",0.2-0.8 μg m1^−1
same,MIC,"S. aureus USA300; Staphylococcus aureus + 10% Serum, USA300",0.2 to 0.8 µg/mL
same,MIC,"S. aureus USA300; Staphylococcus aureus USA300, β-lactams (Methicillin, Oxacillin, Penicillin)",0.2 to 0.8 µg/mL
same,Accumulation of cell wall intermediate UDP-MurNAc-pentapeptide,[1],accumulation of the cell wall intermediate UDP-MurNAc-pentapeptide
same,MIC,"[2]; L. rhamnosus, 15 mM CaCl2",0.1-0.2 μg m1^−1
same,MIC,[2]; Lactobacillus rhamnosus NCTC 13031,0.1 to 0.2 µg/mL
same,MIC,"E. faecium VRE; E. faecium VRE, 15 mM CaCl2",0.4-0.8 μg m1^−1
same,MIC,E. faecium VRE; Enterococcus faecium VRE,0.8 to 2.0 µg/mL
same,MIC,"[3]; C. albicans, 15 mM CaCl2",>100 μg m1^−1
same,MIC,[3]; Candida albicans ATCC 1884,>100 µg/mL
same,MIC,"[4]; S. mutans, 15 mM CaCl2",0.1-0.2 μg m1^−1
same,MIC,[4]; Streptococcus mutans UA159,0.1 to 0.2 µg/mL
same,MIC,[5],>100 µg/mL
same,Membrane leakage (SYTOX green or DiBAC4),MRSA USA300; absence of calcium supplementation,No membrane leakage
same,Membrane leakage (SYTOX green fluorescence),MRSA USA300; with calcium (15 mM CaCl2),does not cause MRSA membrane leakage
same,MIC,Escherichia coli DH5α,>100 µg/mL
same,MIC,[6],>100 µg/mL
same,MIC,"S. aureus BAA-42; S. aureus BAA-42, 15 mM CaCl2",0.2-0.8 μg m1^−1
same,MIC,S. aureus BAA-42; Staphylococcus aureus BAA-42,0.2 to 0.8 µg/mL
same,MIC,[7],>100 µg/mL
same,MIC,"E. faecium Com15; E. faecium Com15, 15 mM CaCl2",0.8-2.0 μg m1^−1
same,MIC,E. faecium Com15; Enterococcus faecium Com15,0.8 to 2.0 µg/mL
same,MIC,"S. aureus NRS140; S. aureus NRS140, erythromycin, spectinomycin, 15 mM CaCl2",0.4-0.8 μg m1^−1
same,MIC,"S. aureus NRS140; Staphylococcus aureus NRS140, Erythromycin, Spectinomycin",0.4 to 2.0 µg/mL
